This is an account of results in patent publication US11273168B2, “Methods of treating anxiety by administering a substituted quinolone” (OTSUKA PHARMACEUTICAL CO., LTD., priority 2010, dated 2022).

Counter-ions that a name gives are not always drawn.

Type in all cases: biochemical
One assay concerns the target T1, Serotonin (5-HT) uptake (Rattus norvegicus, UniProt P31652).
T1 construct: The suspension was used as a crude synaptosome fraction; from tissue; host or cells: rat (male Wistar) frontal cortex, crude synaptosome fraction
As to the kind of experiment: Serotonin (5-HT) uptake inhibitory activity using rat brain synaptosome (frontal cortex). The conditions noted are these: tritium-labeled 5-HT 8 nM, 37° C. 10 minutes, read-out: 50% Inhibitory concentration.

In assay [1] the target is Norepinephrine (NE) uptake (Rattus norvegicus, UniProt Q9WTR4). As to the kind of experiment: Norepinephrine (NE) uptake inhibitory activity using rat brain synaptosome (hippocampus). The conditions noted are these: tritium-labeled NE 12 nM, 37° C. ten minutes, read-out: 50% inhibitory concentration. The essentials:
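Male Wistar rat hippocampal crude synaptosomes in HEPES pH 7.4 saline buffer with glucose, 10 μM pargyline and 0.2 mg/ml ascorbic acid were preincubated 10 min at 37° C with compound.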

A further assay concerns the target T2, Dopamine (DA) uptake (Rattus norvegicus, UniProt P23977).
T2 construct: The suspension was used as a crude synaptosome fraction; from tissue; host or cells: rat (male Wistar) corpus striatum, crude synaptosome fraction
In words: Dopamine (DA) uptake inhibitory activity using rat brain synaptosome (corpus striatum). The conditions noted are these: tritium-labeled DA 2 nM, 37° C. ten minutes, read-out: 50% Inhibitory concentration.

T2 sequence (P23977 whole entry): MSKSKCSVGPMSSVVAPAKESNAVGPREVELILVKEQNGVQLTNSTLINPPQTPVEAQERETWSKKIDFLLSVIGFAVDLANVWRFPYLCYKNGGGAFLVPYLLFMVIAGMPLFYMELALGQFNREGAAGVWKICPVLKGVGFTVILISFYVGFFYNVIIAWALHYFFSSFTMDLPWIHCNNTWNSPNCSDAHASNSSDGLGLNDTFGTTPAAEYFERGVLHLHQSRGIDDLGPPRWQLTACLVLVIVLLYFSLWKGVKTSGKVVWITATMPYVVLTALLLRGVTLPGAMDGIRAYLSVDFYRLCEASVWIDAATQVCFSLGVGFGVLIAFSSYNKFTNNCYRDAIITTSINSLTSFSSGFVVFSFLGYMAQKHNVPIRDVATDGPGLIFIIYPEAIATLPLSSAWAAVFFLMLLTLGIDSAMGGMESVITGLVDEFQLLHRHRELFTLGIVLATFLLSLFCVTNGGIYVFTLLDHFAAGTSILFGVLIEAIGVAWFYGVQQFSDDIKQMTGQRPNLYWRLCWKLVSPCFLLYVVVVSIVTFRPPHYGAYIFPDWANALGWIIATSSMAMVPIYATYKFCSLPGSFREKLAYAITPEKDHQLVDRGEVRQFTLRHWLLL
T1 sequence (P31652 whole entry): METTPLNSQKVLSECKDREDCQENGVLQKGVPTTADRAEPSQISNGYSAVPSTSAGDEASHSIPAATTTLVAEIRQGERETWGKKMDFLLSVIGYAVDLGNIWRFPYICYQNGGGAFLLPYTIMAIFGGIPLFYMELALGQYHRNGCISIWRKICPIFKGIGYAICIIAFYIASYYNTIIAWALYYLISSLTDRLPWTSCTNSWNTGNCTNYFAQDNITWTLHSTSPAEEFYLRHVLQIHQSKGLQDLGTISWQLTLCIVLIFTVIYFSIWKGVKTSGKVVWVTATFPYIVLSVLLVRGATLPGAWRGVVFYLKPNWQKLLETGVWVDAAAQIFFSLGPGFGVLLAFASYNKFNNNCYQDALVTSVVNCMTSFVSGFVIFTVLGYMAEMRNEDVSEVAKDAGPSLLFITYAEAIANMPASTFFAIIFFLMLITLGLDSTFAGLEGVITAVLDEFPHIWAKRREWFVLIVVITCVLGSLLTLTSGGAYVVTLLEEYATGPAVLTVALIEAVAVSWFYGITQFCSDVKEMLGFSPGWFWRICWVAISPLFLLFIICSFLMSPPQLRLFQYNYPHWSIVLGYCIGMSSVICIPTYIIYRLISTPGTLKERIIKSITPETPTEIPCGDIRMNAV

Take `CC1(C)CN(c2ccccc2Cl)[C@H]2CCCC[C@H]2N1` [Example 165]: the IC50 is 12 nM at Serotonin (5-HT) uptake, 2.4 nM in assay [1] and 6.8 nM on Dopamine (DA) uptake.
Taken in the same sequence, the figures for `CC1(C)CN(c2ccc3cc(O)ccc3c2)[C@H]2CCCC[C@@H]2N1` [Example 850] were 7.3 nM, 1 nM and 7 nM.
`C[C@@H]1CN(c2ccc3ncsc3c2)[C@H]2CCCC[C@@H]2N1` [Example 1326]: the results for the IC50 (on Serotonin (5-HT) uptake; in assay [1]; at Dopamine (DA) uptake) were 37.8 nM, 1.8 nM and 91.8 nM, respectively.
Taken in the same sequence, the figures for `C[C@@H]1CN(c2ccc3sccc3c2)[C@H]2CCCC[C@@H]2N1` [Example 1121] were 8.5 nM, 0.7 nM and 29.9 nM.
Taken in the same sequence, the figures for `CC1(C)CN(c2ccc3cc[nH]c3c2)[C@H]2CCCC[C@H]2N1` [Example 2, (4aR,8aS)-1-(1H-indol-6-yl)-3,3-dimethyldecahydroquinoxaline] were 7.1 nM, 4.6 nM and 85.9 nM.
Taken in the same sequence, the figures for `CC1(C)CN(c2ccc3occc3c2)[C@H]2CCCC[C@@H]2N1` [Example 196] were 4.4 nM, 1.7 nM and 18.3 nM.
In the case of `CC1(C)CN(c2ccc3[nH]c(C#N)cc3c2)[C@@H]2CCCC[C@@H]2N1` [Example 654], the results for the IC50 (on Serotonin (5-HT) uptake; in assay [1]; on Dopamine (DA) uptake) were 1.5 nM, 1 nM and 9 nM, respectively.
Taken in the same sequence, the figures for `CC1(C)CN(c2cccc3sccc23)[C@@H]2CCCC[C@@H]2N1` (relative stereo) [Example 27] were 5.8 nM, 0.9 nM and 31.9 nM.
In the case of `CC1(C)CN(c2ccc(OC(F)F)c(F)c2)[C@H]2CCCC[C@@H]2N1` [Example 587, (4aS,8aS)-1-(4-(difluoromethoxy)-3-fluorophenyl)-3,3-dimethyldecahydroquinoxaline dihydrochloride], the IC50 was 0.9 nM on Serotonin (5-HT) uptake, 1.9 nM in assay [1] and 76.1 nM on Dopamine (DA) uptake.
Taken in the same sequence, the figures for `CN1[C@H]2CCCC[C@@H]2N(c2ccc(Cl)c(Cl)c2)CC1(C)C` [Example 247] were 42.8 nM, 6.6 nM and 8.7 nM.
Taken in the same sequence, the figures for `CC1(C)CN(c2ccc(F)c3[nH]ccc23)[C@H]2CCCC[C@@H]2N1` [Example 895] were 5.4 nM, 3 nM and 19.9 nM.
Taken in the same sequence, the figures for `COc1cc2ccc(N3CC(C)(C)N[C@@H]4CCCC[C@H]43)cc2cc1C#N` [Example 962] were 18.7 nM, 31.9 nM and 69.5 nM.
Take `CC1(C)CN(c2ccc(O)c(Cl)c2)[C@H]2CCCC[C@@H]2N1` [Example 918]: the IC50 on Serotonin (5-HT) uptake stood at 10 nM; in assay [1], 0.8 nM; at Dopamine (DA) uptake, 42 nM.
In the same order, the values of `CC1(C)CN(c2ccc(Cl)c(Cl)c2)[C@H]2CCC[C@@H]2N1` (racemic) [Example 15] are 12.5 nM, 11 nM and 68.4 nM.
In the same order, the values of `CC1(C)CN(c2cccc3ccccc23)[C@H]2CCCC[C@H]2N1` [Example 118] are 13.7 nM, 3.7 nM and 8.3 nM.
Take `CN1[C@@H]2CCCC[C@H]2N(c2ccc(Cl)c(Cl)c2)CC1(C)C` [Example 273]: the IC50 turned out to be 44 nM at Serotonin (5-HT) uptake, 6.8 nM in assay [1] and 8.7 nM on Dopamine (DA) uptake.
